Measurements reported in patent publication US20130177991A1, “A[…] EMISSION LUMINOGEN-BASED URINARY PROTEIN DETECTION DEVICE FOR […] HEALTH” (NANO AND ADVANCED MATERIALS INSTITUTE LIMITED, priority 2012, published 2013).

Tests used:
[1] = molecular target: T1, HSA (Homo sapiens, UniProt P02768); assay: Fluorescence turn-on assay of HSA in PBS buffer; assay type: binding
T1 construct: purchased Sigma-Aldrich
Procedure: FIG. 2: (A) Fluorescent (FL) spectra of compound 1, SATPE in phosphate buffered saline (PBS) buffer containing different concentrations of HSA; (B) Change in the FL intensity at 475 nm with HSA concentration; Io=FL intensity in the absence of HSA. Inset: linear region of the binding isotherm of SATPE to HSA. [SATPE]=5 μM; λex=350 nm.
(§1) In another embodiment, Compound 1 is AIE-active as it emits faintly in PBS buffer but gives strong light upon aggregate formation. Its solution in PBS buffer is weakly luminescent at 390 nm in the absence of HSA (FIG. 2). […] The higher the HSA content, the stronger is the light emission. The detection limit can be squeezed to as low as 1 nM. In order to examine the feasibility of protein assay in body fluids, artificial urine is utilized as medium in the protein assay.

[2] = molecular target: T1, HSA; assay: Selectivity of fluorescence response to HSA against other proteins and DNAs; assay type: binding; settings: FIG. 3B, [SATPE]=5 μM, [protein]=100 μg/mL
Procedure: FIG. 3: (A) Binding isotherm of HSA to SATPE in artificial urine and PBS buffer; (B) Dependence of the FL intensity of SATPE at 475 nm on different proteins in artificial urine and PBS buffer. [SATPE]=5 μM; [protein]=100 μg/mL; λex=350 nm.
as §1

T1 sequence (P02768 25-609): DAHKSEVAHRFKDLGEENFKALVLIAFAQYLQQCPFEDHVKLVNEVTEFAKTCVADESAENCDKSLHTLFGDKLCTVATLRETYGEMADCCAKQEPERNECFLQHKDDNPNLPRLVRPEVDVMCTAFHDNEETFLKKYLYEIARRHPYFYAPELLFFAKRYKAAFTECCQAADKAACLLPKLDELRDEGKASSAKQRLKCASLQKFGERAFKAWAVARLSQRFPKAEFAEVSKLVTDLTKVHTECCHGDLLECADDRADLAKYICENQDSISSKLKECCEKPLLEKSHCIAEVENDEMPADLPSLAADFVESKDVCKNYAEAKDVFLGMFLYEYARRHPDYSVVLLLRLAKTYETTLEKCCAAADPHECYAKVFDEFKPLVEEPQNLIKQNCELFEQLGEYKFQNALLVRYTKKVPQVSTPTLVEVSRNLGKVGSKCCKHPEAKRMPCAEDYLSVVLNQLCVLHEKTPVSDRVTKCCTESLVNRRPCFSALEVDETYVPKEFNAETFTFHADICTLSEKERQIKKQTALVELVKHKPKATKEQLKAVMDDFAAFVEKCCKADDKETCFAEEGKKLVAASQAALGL

SMILES: O=S(=O)([O-])CCCOc1ccc(C(=C(c2ccccc2)c2ccc(OCCCS(=O)(=O)[O-])cc2)c2ccccc2)cc1.[Na+].[Na+] [Compound 1]
- detection limit for HSA ([1]; emission at 475 nm): 1 nM
- light emission upon addition of HSA ([1]; weakly luminescent at 390 nm in the absence of HSA): emit intensely at 475 nm
- response to other human proteins and DNAs [2]: no significant response
- selectivity to HSA ([2]; artificial urine and PBS buffer): excellent selectivity to HSA
